Paper PMC5103075, “An immunostimulatory dual-functional nanocarrier that improves cancer immunochemotherapy” (Nature Communications, 2016)
Values after ≈ are worked out from the molar mass of the structure shown. Where two headings read alike, the source gives them in different places.

Tests used:
4T1.2 cells = test: MTT cytotoxicity in 4T1.2 cells; format: cell-based, mouse; conditions: 4T1.2, 72 h; for IC50: means±s.e.m.
Procedure: (§1) 4T1.2 or PC3 cells at 2,000 cells/well were seeded in 96-well plates, respectively. […] After 3 days of incubation, 20 μl of 3-(4, 5-dimethylthiazol-2-yl)-2,5-diphenyltetrazoliumbromide (MTT) in DPBS (5 mg ml^−1) was added to each well and cells were further incubated for 2 h. Medium was removed and MTT formazan crystals were solubilized by 100 μl of DMSO per well. Absorbance of each well was measured with a microplate reader at wavelength of 550 nm. Untreated wells were used as controls. Cell viability was calculated as ((ODtreated−ODblank)/(ODcontrol−ODblank) × 100%).

PC3 cells = test: MTT cytotoxicity in PC3 cells; format: cell-based; conditions: Homo sapiens, PC-3, PC3, 72 h, means±s.e.m.
Procedure: as §1

Row | SMILES | IC50 (4T1.2 cells) [µg/mL] | Cytotoxicity (tumour cell growth inhibition) (4T1.2 cells; Fig. 3d) | IC50 (4T1.2 cells; Mus musculus, read-out: IC50) [µg/mL] | IC50 (PC3 cells) [µg/mL]
1 | COc1cccc2c1C(=O)c1c(O)c3c(c(O)c1C2=O)C[C@@](O)(C(=O)CO)C[C@@H]3O[C@H]1C[C@H](N)[C@H](O)[C@H](C)O1 [DOX, doxorubicin] | 0.2686 ± 0.02728 (≈ 0.494 µM) |  |  | 
2 | CC(=O)O[C@H]1C(=O)[C@@]2(C)[C@H]([C@H](OC(=O)c3ccccc3)[C@]3(O)C[C@H](OC(=O)[C@H](O)[C@@H](NC(=O)c4ccccc4)c4ccccc4)C(C)=C1C3(C)C)[C@]1(OC(C)=O)CO[C@@H]1C[C@@H]2O [PTX, Paclitaxel] |  | inhibited the tumour cell growth in a concentration-dependent manner | 0.245 ± 0.0211 (≈ 0.286 µM) | 0.101 ± 0.0112 (≈ 0.119 µM)
